Assay results: PMC3411647 (PLoS ONE, 2012)

What was measured:
[1] = target: T1, hH4R (Homo sapiens, UniProt Q9H3N8); experiment: CRE-driven luciferase activity in HEK-293 cells stably expressing hH4R; assay type: cell-based
T1 construct: expressed in transfected cells
Description: Figure 3 The selectivity of ZEL-H16 for hH3R in intracellular Ca^2+ flux assay and CRE-luciferase transcription assay. A–C, Intracellular Ca^2+ flux or CRE-driven luciferase activity induced by ZEL-H16 in HEK-293 cells stably expressing hH1R (A), hH2R (B), or hH4R (C). […] The presented data points are the mean ±SE of triplicate values from a single experiment and are representative of three separate experiments. Statistical analysis between ZEL-H16 added or not added for each concentration point in the kinetic graph was done using a t-test (PRISM software). G, Relative expression of hH1R, hH2R, hH3R and hH4R on transfected HEK-293 cells by ELISA quantification for Flag-tagged cell-surface receptors (***p<0.001, compared to non-transfected HEK 293 cells).
Stable HEK-293 cells co-transfected with H3R and pCRE-Luc were seeded in a 48-well plate overnight and were grown to […] confluence. […] Luciferase activity was detected using a firefly luciferase kit (Promega, Madison, WI). When required, cells were treated overnight with or without PTX (100 ng/ml) in serum-free DMEM before the experiment.

[2] = target: T2, human histamine H3 receptor (Homo sapiens, UniProt Q9Y5N1); experiment: Competitive/saturation binding with [3H]N-α-methylhistamine, H3R/HEK-293 cell membranes
T2 construct: expressed in transfected cells
T2 sequence (Q9Y5N1 whole entry): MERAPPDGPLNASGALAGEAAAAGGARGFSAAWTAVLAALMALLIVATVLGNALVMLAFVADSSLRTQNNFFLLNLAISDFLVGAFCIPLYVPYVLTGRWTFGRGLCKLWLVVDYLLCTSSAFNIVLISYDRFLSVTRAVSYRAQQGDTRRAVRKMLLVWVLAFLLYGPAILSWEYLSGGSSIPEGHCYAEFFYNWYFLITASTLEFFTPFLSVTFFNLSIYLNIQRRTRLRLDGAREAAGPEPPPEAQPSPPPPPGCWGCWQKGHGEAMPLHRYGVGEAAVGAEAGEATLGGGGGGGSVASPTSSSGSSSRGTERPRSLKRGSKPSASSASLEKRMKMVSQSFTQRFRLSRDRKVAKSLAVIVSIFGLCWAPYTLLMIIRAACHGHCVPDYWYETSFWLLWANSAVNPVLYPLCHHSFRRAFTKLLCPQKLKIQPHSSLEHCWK
Description: (§1) Figure 4 Competition binding experiments with [^3H]-N-α-methylhistamine. […] The presented data are the means ±SE of values from a single experiment performed in duplicate and are representative of three to six separate experiments.
HEK-293 cells stably expressing H3R were harvested and resuspended in ice-cold 50 mM Tris-HCl (pH 7.4) containing a complete protease inhibitor cocktail tablet and mixed by inverting. The cell pellet was homogenized with a Polytron PT 1200 set at 4000 rpm and centrifuged at 1,000 g for 5 min. The supernatant was then centrifuged twice at 50,000 g for 30 min at 4°C. Finally, the resulting pellet was gently suspended in 50 mM Tris-HCl (pH 7.4) buffer and the membrane concentration was determined using Bio-Rad protein assays.
(§2) The membranes (50 µg of protein) were incubated with [^3H] N-α-methylhistamine at various concentrations (from 0.03 nM to 50 nM) for saturation binding assays. For competitive binding assays, the membranes (50 µg of protein) were incubated with 10 nM [^3H] N-α-methylhistamine for recombinant hH3R or 2nM [^3H] N-α-methylhistamine for rat brain H3R in the presence of various compound concentrations in the buffer (50 mM Tris–HCl, pH 7.4). […] Following three washes, the membrane-bound radioactivity was measured on a Topcount (PerkinElmer) at 20°C. […] IC50 values were converted to Ki values using the Cheng-Prusoff equation. Each experiment was performed in duplicate and repeated three to six times. All data were analyzed by nonline arregression using GraphPad Prism version 4.0 software.

[3] = target: T3, H3R (Cavia porcellus, UniProt Q9JI35); experiment: Guinea-pig ileum bioassay, inhibition of electrically induced twitch
T3 construct: from tissue; host or cells: guinea-pig ileum segments
T3 sequence (Q9JI35 whole entry): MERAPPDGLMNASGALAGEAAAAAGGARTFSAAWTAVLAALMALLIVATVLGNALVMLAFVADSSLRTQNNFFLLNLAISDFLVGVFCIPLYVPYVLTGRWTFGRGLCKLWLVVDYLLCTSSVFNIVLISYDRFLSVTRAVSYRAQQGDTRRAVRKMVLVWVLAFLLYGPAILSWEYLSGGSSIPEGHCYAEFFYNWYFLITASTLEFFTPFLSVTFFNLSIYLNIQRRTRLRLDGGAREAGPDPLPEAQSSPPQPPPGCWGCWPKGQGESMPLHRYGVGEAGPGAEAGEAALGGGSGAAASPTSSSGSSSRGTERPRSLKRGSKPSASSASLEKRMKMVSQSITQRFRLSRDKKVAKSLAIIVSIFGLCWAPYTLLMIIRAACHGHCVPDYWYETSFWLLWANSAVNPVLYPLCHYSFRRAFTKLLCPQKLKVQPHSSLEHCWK
Description: Each point is the mean ± s.e.m. of three to six separate experiments.
The procedure used was as described previously. Adult male guinea pigs (300–500 g) were killed by cervical dislocation. The ileum was removed at a point 20 cm from the caecum and flushed with and placed in modified K–H buffer of following composition: 118 mM NaCl, 5.9 mM KCl, 1.2 mM CaCl2, 1.2 mM MgSO4, 1 mM Na2HPO4, 25 mM NaHCO3 and 10 mM D-glucose. Ileum segments (2.5–3 cm) were suspended in 20 ml organ baths containing K–H buffer maintained at 37°C and gassed with 95% O2/5% CO2. Contractile activity under stimulation (rectangular pulses of 15 V, 0.5 ms, and 0.1 Hz) was recorded using isometric transducers (Grass FTO3). […] Mepyramine ([…]) and famotidine ([…]) (Sigma-Aldrich, St. Louis, MO) were added to the K–H buffer to block postsynaptic H1 and presynaptic H2 receptors, respectively.

[4] = target: T4, mouse H3R (Mus musculus, UniProt P58406); experiment: ERK1/2 phosphorylation in neonatal mouse cortical neuron cultures; assay type: cell-based; conditions: 5 µM
T4 construct: endogenous in cells; host or cells: primary cortical neurons of neonatal ICR mice
T4 sequence (P58406 whole entry): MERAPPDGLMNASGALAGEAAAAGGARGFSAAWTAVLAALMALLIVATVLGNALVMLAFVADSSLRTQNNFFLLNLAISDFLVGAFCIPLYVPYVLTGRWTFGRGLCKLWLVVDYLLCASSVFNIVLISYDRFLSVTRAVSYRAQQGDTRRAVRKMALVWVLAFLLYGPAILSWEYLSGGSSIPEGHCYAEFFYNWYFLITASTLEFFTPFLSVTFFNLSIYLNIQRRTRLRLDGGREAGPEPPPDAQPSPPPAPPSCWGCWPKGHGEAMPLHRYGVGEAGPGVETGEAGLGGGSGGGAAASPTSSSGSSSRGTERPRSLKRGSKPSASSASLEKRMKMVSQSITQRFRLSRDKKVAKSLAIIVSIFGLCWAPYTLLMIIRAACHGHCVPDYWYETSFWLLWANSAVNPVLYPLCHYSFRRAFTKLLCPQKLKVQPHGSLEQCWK
Description: Figure 8 Phosphorylation of ERK1/2 induced by ZEL-H16 in mouse cortical neurons. A, Time-dependent phosphorylation of ERK1/2 induced by 5 µM ZEL-H16 in neonatal mouse cortical neuron cultures. B, The phosphorylation of ERK1/2 induced by 50 µM ZEL-H16 for 20 min was mostly abolished by 100 ng/mL PTX or 10 µM thioperamide. Signals were quantified by densitometric image analysis and p-ERK was normalized to a loading control (ERK). The signal at each point is expressed as the percentage of the maximal p-ERK signal induced by ZEL-H16. Data represent the mean ±SE of three independent experiments.
Neuronal cortical cultures were prepared from neonatal ICR mice. Cerebral cortices were dissociated in sterile Dulbecco’s phosphate-buffered saline (D-PBS; Sigma-Aldrich, St. Louis, MO), and the neurons were isolated in the same medium containing 0.5% trypsin at 37°C for 10 min. After centrifugation, dissociated neurons were re-suspended in neurobasal medium (NBM; Gibco, Carlsbad, CA) supplemented with 2% B-27 and 0.5 mmol/L-glutamine (Gibco, Carlsbad, CA) and then plated on 48-well plates at a density of approximately 1.3×10^6 per well. After 7 days of culture, the neurons were serum starved for approximately 3 h prior to drug treatment. […]

[5] = target: T5, H3R (Homo sapiens, UniProt Q9Y5N1); experiment: H3R internalization, cell-surface ELISA in HEK-293 cells stably transfected with Flag-H3R; assay type: cell-based; conditions: 100 µM, 45 min at 37°C
T5 construct: expressed in transfected cells
T5 sequence (Q9Y5N1 whole entry): as the sequence (Q9Y5N1 whole entry) above
Description: ELISA data are expressed as the percentage of receptors detected on the surface of agonist-untreated cells expressing H3R. Error bars represent the SEM for four replicates.
The cell surface expression of H3R was quantitatively assessed by ELISA and performed as described previously. Briefly, HEK-293 cells stably transfected with the pCMV-H3R construct were seeded in 48-well dishes coated with poly-L-lysine. […] Medium was aspirated and the cells were washed once with Tris-buffered saline (TBS). […] Cells were then incubated for 1 h with an alkaline phosphatase-conjugated monoclonal antibody directed against the Flag epitope and diluted 1∶1,000. Cells were washed 3 times, and antibody binding was visualized by adding 0.25 mL of an alkaline phosphatase substrate (Bio-Rad). Development was stopped by adding 0.1 mL of the substrate to a 96-well microtiter plate containing 0.1 mL of 0.4 M NaOH.

[6] = target: T6, rat brain H3R (Rattus norvegicus, UniProt Q9QYN8); experiment: Competitive/saturation binding with [3H]N-α-methylhistamine, rat cerebral cortex membranes; conditions: 2 nM [3H]N-α-methylhistamine, rat cerebral cortex membranes
T6 construct: from tissue; host or cells: rat cerebral cortex membranes
T6 sequence (Q9QYN8 whole entry): as the sequence (P58406 whole entry) above, with A15T, T286A, G290A, H387R, V389I counted along it
Description: as §1, §2

T1 sequence (Q9H3N8 whole entry): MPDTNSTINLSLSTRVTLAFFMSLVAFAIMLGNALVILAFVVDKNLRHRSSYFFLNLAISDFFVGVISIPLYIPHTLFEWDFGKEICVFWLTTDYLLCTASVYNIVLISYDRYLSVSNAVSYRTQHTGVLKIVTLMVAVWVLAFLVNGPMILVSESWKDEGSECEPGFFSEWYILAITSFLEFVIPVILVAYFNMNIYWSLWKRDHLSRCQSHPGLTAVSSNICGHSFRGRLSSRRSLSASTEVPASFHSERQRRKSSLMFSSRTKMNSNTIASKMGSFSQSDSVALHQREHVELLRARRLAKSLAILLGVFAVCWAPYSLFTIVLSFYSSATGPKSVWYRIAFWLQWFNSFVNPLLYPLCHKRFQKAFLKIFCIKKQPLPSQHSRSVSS

In the case of c1ccc2c(c1)c(CCCN1CCCCC1)cn2CCCN1CCCCC1 [ZEL-H16], the “antagonist activity: influence on luciferase activity curves induced by histamine” value ([1]; ZEL-H16 added to histamine) is reported as “did not significantly change the luciferase activity curves”, the “agonist activity: luciferase activity after stimulation” value ([1]; ZEL-H16 alone) is reported as “no significant responses” and the Ki ([2]; 10 nM [3H]N-α-methylhistamine, H3R/HEK-293 membranes, read-out: Ki) is reported as 2.07 ± 0.8 nM. For the same molecule, the “affinity for human H3R as compared to histamine” value ([2]; higher affinity than histamine) was “approximately 20 fold”, the “efficacy of inhibition of the contractions of the guinea pig ileum” value ([3]; electrically induced twitch, mepyramine and famotidine present) was 54.03±5.13% and the EC50 ([3]; inhibition of electrically induced twitch, read-out: pD 2 (converted)) was 269 nM. The “time of maximal ERK activation after stimulation” value [4] was 20 min, the “loss in the expression of the receptors on the cell surface (internalization)” value [5] was 50% and the Ki [6] was 4.36 ± 2 nM.
